Columns and labels:
[1] = tested on: HO-1-N-1 (Oral Cavity Carcinoma); assay: combination Emax (second highest fraction inhibited in the dose matrix, 72 h); higher = more inhibition; extreme values may be limits of the assay
Outline: (§1)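 Cell lines grown in DMEM/F12 or RPMI with 10% FBS were plated in 1536-well plates and held 24 hours at 37°C, 5% CO2 before 72 hours of exposure to two-drug dose matrices, with DMSO typically at 0.2%. CellTiter-Glo 2.0 luminescence gave viability, which was converted to inhibition. Vehicle wells were set to 0 and blank wells to 1. Combination Emax is the second-highest inhibition in the matrix, and Bliss excess is the observed combination effect minus the expected EA + EB − EA·EB, where EA and EB are the single-agent effects.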

[2] = tested on: ME-1 (Acute Myeloid Leukemia); assay: as above
Outline: as §1

[3] = tested on: Ramos-2G6-4C10 (Burkitt's Lymphoma); assay: as above
Outline: as §1

[4] = tested on: T98G (Glioblastoma); assay: as above
Outline: as §1

[5] = tested on: Hs-578-T (Breast Carcinoma); assay: as above
Outline: as §1

[6] = tested on: LS-180 (Colorectal Carcinoma); assay: as above
Outline: as §1

[7] = tested on: NCI-H2085 (Non-Small Cell Lung Carcinoma); assay: as above
Outline: as §1

[8] = tested on: KURAMOCHI (Ovarian Carcinoma); assay: as above
Outline: as §1

[9] = tested on: CAL-148 (Breast Carcinoma); assay: as above
Outline: as §1

[10] = tested on: HT-1376 (Bladder Carcinoma); assay: as above
Outline: as §1

[11] = tested on: RO82-W-1 (Thyroid Gland Carcinoma); assay: as above
Outline: as §1

[12] = tested on: NB10 (Neuroblastoma); assay: as above
Outline: as §1

[13] = tested on: CaR-1 (Colorectal Carcinoma); assay: as above
Outline: as §1

[14] = tested on: KELLY (Neuroblastoma); assay: as above
Outline: as §1

[15] = tested on: HOS (Osteosarcoma); assay: as above
Outline: as §1

[16] = tested on: CCRF-CEM (T-Lymphoblastic Leukemia); assay: as above
Outline: as §1

[17] = tested on: NCI-H2085 (Non-Small Cell Lung Carcinoma); assay: Bliss excess, mean over the matrix (fraction); higher = more synergy
Outline: as §1

[18] = tested on: RO82-W-1 (Thyroid Gland Carcinoma); assay: as above
Outline: as §1

[19] = tested on: HOS (Osteosarcoma); assay: as above
Outline: as §1

[20] = tested on: NCI-H82 (Small Cell Lung Carcinoma); assay: as above
Outline: as §1
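Wherever Bliss excess, mean over the matrix is given: after 72 h of two-drug dosing.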

Row | Structure (SMILES) | combination Emax [1] | combination Emax [2] | combination Emax [3] | combination Emax [4] | combination Emax [5] | combination Emax [6] | combination Emax [7] | combination Emax [8] | combination Emax [9] | combination Emax [10] | combination Emax [11] | combination Emax [12] | combination Emax [13] | combination Emax [14] | combination Emax [15] | combination Emax [16] | Bliss excess [17] | Bliss excess [18] | Bliss excess [19] | Bliss excess [20]
1 | C[C@@H](Nc1cc(F)cc(F)c1)c1cc(C(=O)N(C)C)cc2c(=O)cc(N3CCOCC3)oc12 [AZD8186] + C1CN(CCC1(C(=O)N[C@@H](CCO)C2=CC=C(C=C2)Cl)N)C3=NC=NC4=C3C=CN4 [AZD5363] (first compound max 10 µM, 7x7, partner max 10 µM) | 0.54 | 0.103 | 0.26 | 0.562 | 0.7 | 0.419 | 0.542 | 0.254 | 0.989 | 0.116 | 0.201 | 0.228 | 0.394 | 0.115 | 0.336 | 0.411 | -0.045 | -0.0132 | -0.0447 | -0.0759
2 | C[C@@H](Nc1cc(F)cc(F)c1)c1cc(C(=O)N(C)C)cc2c(=O)cc(N3CCOCC3)oc12 [AZD8186] + CC(=O)c1c(C)c2cnc(Nc3ccc(N4CCNCC4)cn3)nc2n(C2CCCC2)c1=O [Palbociclib] (first compound max 10 µM, 7x7, partner max 10 µM) | 0.505 | 0.233 | 0.302 | 0.657 | 0.656 | 0.624 | 0.61 | 0.28 | 0.655 | 0.0814 | 0.27 | 0.403 | 0.471 | 0.434 | 0.336 | 0.622 | 0.0565 | 0.033 | -0.0227 | -0.0338
3 | C[C@@H](Oc1cc(-c2cnn(C3CCNCC3)c2)cnc1N)c1c(Cl)ccc(F)c1Cl [Crizotinib] + CC1=C(C(=CC=C1)Cl)NC(=O)C2=CN=C(S2)NC3=CC(=NC(=N3)C)N4CCN(CC4)CCO [Dasatinib] (first compound max 10 µM, 7x7, partner max 2 µM) | 0.972 | 0.258 | 0.586 | 0.971 | 0.961 | 0.585 | 1 | 0.909 | 0.578 | 0.418 | 0.618 | 0.792 | 0.943 | 0.991 | 0.756 | 0.911 | 0.0551 | 0.0517 | -0.0153 | -0.0642
4 | C[C@@H](Oc1cc(-c2cnn(C3CCNCC3)c2)cnc1N)c1c(Cl)ccc(F)c1Cl [Crizotinib] + Cn1cnc2c(F)c(Nc3ccc(Br)cc3Cl)c(C(=O)NOCCO)cc21 [Selumetinib] (first compound max 10 µM, 7x7, partner max 10 µM) | 0.769 | 0.458 | 0.4 | 0.427 | 0.512 | 0.717 | 0.545 | 0.508 | 0.578 | 0.0756 | 0.197 | 0.872 | 0.491 | 0.98 | 0.457 | 0.854 | -0.0399 | -0.0227 | -0.0566 | -0.0702
5 | O=C(c1cc(Cc2n[nH]c(=O)c3ccccc23)ccc1F)N1CCN(C(=O)C2CC2)CC1 [Olaparib] + CC1(C)CCC(CN2CCN(c3ccc(C(=O)NS(=O)(=O)c4ccc(NCC5CCOCC5)c([N+](=O)[O-])c4)c(Oc4cnc5[nH]ccc5c4)c3)CC2)=C(c2ccc(Cl)cc2)C1 [Venetoclax] (first compound max 10 µM, 7x7, partner max 1 µM) | 0.221 | 1 | 0.126 | 0.123 | 0.308 | 0.203 | 0.0675 | 0.137 | 0.261 | 0.0615 | 0.129 | 0.348 | 0.0709 | 0.632 | 0.22 | 0.209 | -0.0608 | -0.0277 | -0.0626 | -0.0197
6 | O=C(c1cc(Cc2n[nH]c(=O)c3ccccc23)ccc1F)N1CCN(C(=O)C2CC2)CC1 [Olaparib] + CN(CC[C@H](CSC1=CC=CC=C1)NC2=C(C=C(C=C2)S(=O)(=O)NC(=O)C3=CC=C(C=C3)N4CCC(CC4)[C@H](C5=CC=CC=C5C6=CC=C(C=C6)Cl)O)S(=O)(=O)C(F)(F)F)CCO [AZD4320] (first compound max 10 µM, 7x7, partner max 1 µM) | 0.352 | 1 | 0.404 | 0.251 | 0.62 | 0.227 | 0.289 | 0.379 | 0.83 | 0.215 | 0.546 | 0.389 | 0.136 | 0.831 | 0.277 | 0.986 | -0.0134 | 0.0031 | 0.0192 | -0.0532
7 | O=C(c1cc(Cc2n[nH]c(=O)c3ccccc23)ccc1F)N1CCN(C(=O)C2CC2)CC1 [Olaparib] + COc1nnc2ccc(N3CCC(c4ccc(OCCN5CCN(C)C(=O)[C@H]5C)cc4)CC3)nn12 [AZD5153] (first compound max 10 µM, 7x7, partner max 1 µM) | 0.604 | 0.403 | 0.611 | 0.408 | 0.729 | 0.581 | 0.383 | 0.772 | 0.73 | 0.0928 | 0.274 | 0.406 | 0.277 | 0.397 | 0.402 | 0.714 | -0.0423 | -0.0002 | -0.057 | -0.0326
8 | O=C(c1cc(Cc2n[nH]c(=O)c3ccccc23)ccc1F)N1CCN(C(=O)C2CC2)CC1 [Olaparib] + Cc1c2c(nn1C)CSCc1cc(n(C)n1)CSc1cc(c3ccccc3c1)OCCCc1c(C(=O)O)n(C)c3c-2c(Cl)ccc13 [AZD5991] (first compound max 10 µM, 7x7, partner max 1 µM) | 0.78 | 0.551 | 0.978 | 0.223 | 0.489 | 0.221 | 0.0831 | 0.28 | 0.635 | 0.0928 | 0.147 | 0.437 | 0.13 | 0.934 | 0.254 | 0.271 | -0.062 | -0.0375 | -0.0292 | -0.0755
9 | N#Cc1cnc(Nc2cc(NC[C@H]3CNCCO3)c(C(F)(F)F)cn2)cn1 [SRA737] + CCc1c2c(nc3ccc(O)cc13)-c1cc3c(c(=O)n1C2)COC(=O)[C@]3(O)CC [SN-38] (first compound max 10 µM, 7x7, partner max 0.3 µM) | 0.975 | 0.675 | 1 | 0.921 | 0.804 | 0.74 | 0.665 | 0.9 | 0.907 | 0.566 | 0.214 | 0.769 | 0.791 | 1 | 0.849 | 1 | -0.0053 | -0.04 | 0.0136 | 0.0325
10 | N#Cc1cnc(Nc2cc(NC[C@H]3CNCCO3)c(C(F)(F)F)cn2)cn1 [SRA737] + Nc1ccn([C@@H]2O[C@H](CO)[C@@H](O)C2(F)F)c(=O)n1 [Gemcitabine] (first compound max 10 µM, 7x7, partner max 0.3 µM) | 1 | 0.66 | 0.976 | 0.825 | 0.837 | 0.804 | 0.595 | 0.673 | 0.845 | 0.442 | 0.212 | 0.946 | 0.67 | 1 | 0.752 | 1 | -0.0192 | -0.0037 | 0.114 | -0.0231
11 | N#Cc1cnc(Nc2cc(NC[C@H]3CNCCO3)c(C(F)(F)F)cn2)cn1 [SRA737] + O=c1[nH]cc(F)c(=O)[nH]1 [5-Fluorouracil] (first compound max 10 µM, 7x7, partner max 20 µM) | 0.473 | 0.471 | 0.84 | 0.837 | 0.612 | 0.568 | 0.501 | 0.606 | 0.497 | 0.175 | 0.144 | 0.53 | 0.229 | 1 | 0.435 | 0.99 | -0.0495 | -0.0283 | 0.0248 | -0.111
12 | Cc1nc(-c2cn3c(n2)-c2ccc(-c4cnn(C(C)(C)C(N)=O)c4)cc2OCC3)n(C(C)C)n1 [Taselisib] + O=C(Nc1ccc2[nH]nc(-c3ccncc3)c2c1)[C@@H]1CCN(CC(=O)N2CCN(c3ccc(-c4ncccn4)cc3)CC2)C1 [SCH772984] (first compound max 10 µM, 7x7, partner max 5 µM) | 0.999 | 0.272 | 0.163 | 0.851 | 0.89 | 0.867 | 0.603 | 0.683 | 0.964 | 0.227 | 0.193 | 0.791 | 0.872 | 0.635 | 0.564 | 0.611 | -0.0174 | 0.0009 | 0.0044 | -0.0251
13 | CC1(C)CCC(CN2CCN(c3ccc(C(=O)NS(=O)(=O)c4ccc(NCC5CCOCC5)c([N+](=O)[O-])c4)c(Oc4cnc5[nH]ccc5c4)c3)CC2)=C(c2ccc(Cl)cc2)C1 [Venetoclax] + CS(=O)(=O)CCNCc1ccc(-c2ccc3ncnc(Nc4ccc(OCc5cccc(F)c5)c(Cl)c4)c3c2)o1 [Lapatinib] (first compound max 1 µM, 7x7, partner max 10 µM) | 0.668 | 1 | 0.241 | 0.179 | 0.554 | 0.298 | 0.244 | 0.341 | 0.235 | 0.194 | 0.144 | 0.0761 | 0.308 | 0.947 | 0.13 | 0.501 | -0.0267 | -0.0299 | -0.087 | -0.0384
